Like-named read-outs stand apart in the source and are kept apart here.

The assay deals with T1, SIRT1 (Homo sapiens, UniProt Q96EB6).
T1 sequence (Q96EB6 1-747): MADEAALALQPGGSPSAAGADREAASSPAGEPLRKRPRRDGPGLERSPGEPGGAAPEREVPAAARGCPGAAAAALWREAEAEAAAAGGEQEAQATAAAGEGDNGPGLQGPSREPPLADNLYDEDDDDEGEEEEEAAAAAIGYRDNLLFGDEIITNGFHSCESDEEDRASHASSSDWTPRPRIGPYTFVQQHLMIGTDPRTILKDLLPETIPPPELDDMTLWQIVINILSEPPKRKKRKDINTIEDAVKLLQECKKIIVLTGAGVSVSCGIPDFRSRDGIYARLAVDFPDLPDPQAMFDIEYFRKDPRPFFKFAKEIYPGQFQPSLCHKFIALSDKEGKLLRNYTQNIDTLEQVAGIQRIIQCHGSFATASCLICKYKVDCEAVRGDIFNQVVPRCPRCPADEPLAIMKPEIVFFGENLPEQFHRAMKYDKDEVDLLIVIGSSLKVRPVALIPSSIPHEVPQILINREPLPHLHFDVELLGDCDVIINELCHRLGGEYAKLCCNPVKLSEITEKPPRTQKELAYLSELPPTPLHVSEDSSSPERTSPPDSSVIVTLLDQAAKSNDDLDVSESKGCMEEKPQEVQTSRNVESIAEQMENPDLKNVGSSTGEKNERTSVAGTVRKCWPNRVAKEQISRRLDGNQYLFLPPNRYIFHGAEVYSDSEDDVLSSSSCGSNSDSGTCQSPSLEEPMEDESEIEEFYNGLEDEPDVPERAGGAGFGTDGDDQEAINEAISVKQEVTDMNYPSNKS
The assay can be described thus: Trp mass spectrometry assay of SIRT1 activation (Ac-R-H-K-K(Ac)-W-NH2 peptide). The note with it: for Emax: 25 min, read-out: TRP MAX RESP (percent maximum fold activation). Type of assay: biochemical. In a few lines: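 N-terminal His-tagged human SIRT1, expressed in BL21(DE3) and purified, was incubated 25 min with an acetylated Trp peptide and NAD plus test compound at varying concentrations, then quenched with formic acid. OAADPR or deacetylated peptide was quantified by mass spectrometry versus compound-free control; EC1.5 is the concentration giving 50% activity increase, with percent maximum activation.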

The mark [1] stands for this setting: Trp peptide 0.5 μM, 120 μM βNAD+, 10 nM SIRT1, 25 min at 25° C., relative to control (100%).
Setting [2] is: Trp peptide 0.5 μM, 120 μM βNAD+, 10 nM SIRT1, 25 min at 25° C.

Take `C[C@@H](NC(=O)c1ccc2c(n1)N(C(=O)Nc1ncc3cc[nH]c3n1)[C@H]1CCN2C1)C(F)(F)F` [Example 62, (4S)—N5-(7H-pyrrolo[2,3-d]pyrimidin-2-yl)-N7-((R)-1,1,1-trifluoropropan-2-yl)-3,4-dihydro-1,4-methanopyrido[2,3-b][1,4]diazepine-5,7(2H)-dicarboxamide]: the Emax under setting [1] is above 150%. Also, the “TRP Activity (EC1.5, concentration of test compound that results in 150% activation of SIRT1)” value under setting [2] is “A (EC1.5<1 μM)”.
Take `O=C(NCC(F)(F)F)c1ccc2c(n1)N(C(=O)Nc1cnccn1)[C@H]1CCN2C1` [Example 63, (4S)—N5-(pyrazin-2-yl)-N7-(2,2,2-trifluoroethyl)-3,4-dihydro-1,4-methanopyrido[2,3-b][1,4]diazepine-5,7(2H)-dicarboxamide]: the Emax was above 150%. The “TRP Activity (EC1.5, concentration of test compound that results in 150% activation of SIRT1)” value under setting [2] is reported as “A (EC1.5<1 μM)”.
Take `Cc1ccc2c(NC(=O)N3c4nc(C(=O)NCC(F)(F)F)ccc4N4CC[C@H]3C4)n[nH]c2n1` [Example 64, (4S)—N5-(6-methyl-1H-pyrazolo[3,4-b]pyridin-3-yl)-N7-(2,2,2-trifluoroethyl)-3,4-dihydro-1,4-methanopyrido[2,3-b][1,4]diazepine-5,7(2H)-dicarboxamide]: the Emax under setting [1] is above 150%. Moreover, the “TRP Activity (EC1.5, concentration of test compound that results in 150% activation of SIRT1)” value under setting [2] is “A (EC1.5<1 μM)”.
For `C[C@@H](NC(=O)c1ccc2c(n1)N(C(=O)Nc1ccncn1)[C@H]1CCN2C1)C(F)(F)F` [Example 66, (4S)—N5-(pyrimidin-4-yl)-N7-((R)-1,1,1-trifluoropropan-2-yl)-3,4-dihydro-1,4-methanopyrido[2,3-b][1,4]diazepine-5,7(2H)-dicarboxamide], in that order: above 150% and “A (EC1.5<1 μM)”.
For `O=C(NC1CC1)c1ccc2c(n1)N(C(=O)Nc1ccc(Cl)cn1)[C@H]1CCN2C1` [Example 67, (4S)—N5-(5-chloropyridin-2-yl)-N7-cyclopropyl-3,4-dihydro-1,4-methanopyrido[2,3-b][1,4]diazepine-5,7(2H)-dicarboxamide], under setting [1], the Emax was above 150%. The “TRP Activity (EC1.5, concentration of test compound that results in 150% activation of SIRT1)” value under setting [2] was “B (EC1.5 1-25 μM)”.
For `C[C@@H](NC(=O)c1ccc2c(n1)N(C(=O)Nc1cc[nH]n1)[C@H]1CCN2C1)C(F)(F)F` [Example 68, (4S)—N5-(1H-pyrazol-3-yl)-N7-((R)-1,1,1-trifluoropropan-2-yl)-3,4-dihydro-1,4-methanopyrido[2,3-b][1,4]diazepine-5,7(2H)-dicarboxamide], in that order: above 150% and “A (EC1.5<1 μM)”.
Turning to `O=C(NCC(F)F)c1ccc2c(n1)N(C(=O)Nc1ccc(F)cn1)[C@H]1CCN2C1` [Example 69, (4S)—N7-(2,2-difluoroethyl)-N5-(5-fluoropyridin-2-yl)-3,4-dihydro-1,4-methanopyrido[2,3-b][1,4]diazepine-5,7(2H)-dicarboxamide], the Emax was above 150%. Also, under setting [2], the “TRP Activity (EC1.5, concentration of test compound that results in 150% activation of SIRT1)” value is given as “A (EC1.5<1 μM)”.
As to `O=C(NCC(F)(F)F)c1ccc2c(n1)N(C(=O)Nc1ccc(F)cn1)[C@H]1CCN2C1` [Example 70, (4S)—N5-(5-fluoropyridin-2-yl)-N7-(2,2,2-trifluoroethyl)-3,4-dihydro-1,4-methanopyrido[2,3-b][1,4]diazepine-5,7(2H)-dicarboxamide], under setting [1], the Emax was above 150%. Further, the “TRP Activity (EC1.5, concentration of test compound that results in 150% activation of SIRT1)” value under setting [2] was “A (EC1.5<1 μM)”.
For the compound `O=C(NC[C@@H](O)C(F)(F)F)c1ccc2c(n1)N(C(=O)Nc1ccc(F)cn1)[C@H]1CCN2C1` [Example 71, (4S)—N5-(5-fluoropyridin-2-yl)-N7-((R)-3,3,3-trifluoro-2-hydroxypropyl)-3,4-dihydro-1,4-methanopyrido[2,3-b][1,4]diazepine-5,7(2H)-dicarboxamide], the Emax under setting [1] was above 150%. In addition, the “TRP Activity (EC1.5, concentration of test compound that results in 150% activation of SIRT1)” value under setting [2] is recorded as “A (EC1.5<1 μM)”.
Taken in the same sequence, the figures for `CC(C)(C)CNC(=O)c1ccc2c(n1)N(C(=O)Nc1ccc(F)cn1)[C@H]1CCN2C1` [Example 73, (4S)—N5-(5-fluoropyridin-2-yl)-N7-neopentyl-3,4-dihydro-1,4-methanopyrido[2,3-b][1,4]diazepine-5,7(2H)-dicarboxamide] were above 150% and “A (EC1.5<1 μM)”.
With `C[C@@H](NC(=O)c1ccc2c(n1)N(C(=O)Nc1cc(OC[C@H](O)CO)ccn1)[C@H]1CCN2C1)C(F)(F)F` [Example 74, (4S)—N5-(4-((R)-2,3-dihydroxypropoxy)pyridin-2-yl)-N7-((R)-1,1,1-trifluoropropan-2-yl)-3,4-dihydro-1,4-methanopyrido[2,3-b][1,4]diazepine-5,7(2H)-dicarboxamide], the Emax under setting [1] is above 150%.
For `C[C@@H](NC(=O)c1ccc2c(n1)N(C(=O)Nc1ncco1)[C@H]1CCN2C1)C(F)(F)F` [Example 75, (4S)—N5-(oxazol-2-yl)-N7-((R)-1,1,1-trifluoropropan-2-yl)-3,4-dihydro-1,4-methanopyrido[2,3-b][1,4]diazepine-5,7(2H)-dicarboxamide], the Emax under setting [1] was above 150%. For the same compound, the “TRP Activity (EC1.5, concentration of test compound that results in 150% activation of SIRT1)” value under setting [2] is “A (EC1.5<1 μM)”.
Taken in the same sequence, the figures for `Cc1ccc2c(NC(=O)N3c4nc(C(=O)N[C@H](C)C(F)(F)F)ccc4N4CC[C@H]3C4)n[nH]c2n1` [Example 76, (4S)—N5-(6-methyl-1H-pyrazolo[3,4-b]pyridin-3-yl)-N7-((R)-1,1,1-trifluoropropan-2-yl)-3,4-dihydro-1,4-methanopyrido[2,3-b][1,4]diazepine-5,7(2H)-dicarboxamide] were above 150% and “A (EC1.5<1 μM)”.
For `C[C@@H](NC(=O)c1ccc2c(n1)N(C(=O)Nc1cccnn1)[C@H]1CCN2C1)C(F)(F)F` [Example 77, (4S)—N5-(pyridazin-3-yl)-N7-((R)-1,1,1-trifluoropropan-2-yl)-3,4-dihydro-1,4-methanopyrido[2,3-b][1,4]diazepine-5,7(2H)-dicarboxamide], in that order: above 150% and “A (EC1.5<1 μM)”.
`O=C(NC1CC1)c1ccc2c(n1)N(C(=O)Nc1cc(-c3cnco3)ccn1)[C@H]1CCN2C1` [Example 78, (4S)—N7-cyclopropyl-N5-(4-(oxazol-5-yl)pyridin-2-yl)-3,4-dihydro-1,4-methanopyrido[2,3-b][1,4]diazepine-5,7(2H)-dicarboxamide]: the Emax under setting [1] is above 150%. Under setting [2], the “TRP Activity (EC1.5, concentration of test compound that results in 150% activation of SIRT1)” value was “A (EC1.5<1 μM)”.
Take `O=C(NCCC(F)(F)F)c1ccc2c(n1)N(C(=O)Nc1ccc(F)cn1)[C@H]1CCN2C1` [Example 79, (4S)—N5-(5-fluoropyridin-2-yl)-N7-(3,3,3-trifluoropropyl)-3,4-dihydro-1,4-methanopyrido[2,3-b][1,4]diazepine-5,7(2H)-dicarboxamide]: under setting [1], the Emax was above 150%. Also, the “TRP Activity (EC1.5, concentration of test compound that results in 150% activation of SIRT1)” value under setting [2] is listed as “A (EC1.5<1 μM)”.
For the compound `CC(C)[C@@H](C)NC(=O)c1ccc2c(n1)N(C(=O)Nc1ccc(F)cn1)[C@H]1CCN2C1` [Example 80, (4S)—N5-(5-fluoropyridin-2-yl)-N7-((R)-3-methylbutan-2-yl)-3,4-dihydro-1,4-methanopyrido[2,3-b][1,4]diazepine-5,7(2H)-dicarboxamide], under setting [1], the Emax was above 150%. Moreover, the “TRP Activity (EC1.5, concentration of test compound that results in 150% activation of SIRT1)” value under setting [2] was “A (EC1.5<1 μM)”.
Take `O=C(NC[C@H](O)C(F)(F)F)c1ccc2c(n1)N(C(=O)Nc1ccc(F)cn1)[C@H]1CCN2C1` [Example 81, (4S)—N5-(5-fluoropyridin-2-yl)-N7-((S)-3,3,3-trifluoro-2-hydroxypropyl)-3,4-dihydro-1,4-methanopyrido[2,3-b][1,4]diazepine-5,7(2H)-dicarboxamide]: the Emax under setting [1] is above 150%. Further, under setting [2], the “TRP Activity (EC1.5, concentration of test compound that results in 150% activation of SIRT1)” value is on record as “A (EC1.5<1 μM)”.
With `O=C(N[C@H](CO)C(F)(F)F)c1ccc2c(n1)N(C(=O)Nc1ccc(F)cn1)[C@H]1CCN2C1` [Example 82, (4S)—N5-(5-fluoropyridin-2-yl)-N7-((R)-1,1,1-trifluoro-3-hydroxypropan-2-yl)-3,4-dihydro-1,4-methanopyrido[2,3-b][1,4]diazepine-5,7(2H)-dicarboxamide], under setting [1], the Emax is above 150%. Moreover, the “TRP Activity (EC1.5, concentration of test compound that results in 150% activation of SIRT1)” value under setting [2] is listed as “A (EC1.5<1 μM)”.

The record behind these values is patent publication US10072011B2, “Substituted bridged urea analogs as sirtuin modulators” (GlaxoSmithKline Intellectual Property (No.2) Limited, priority 2014, dated 2018).
